# Source: patent US9623049B2, “Immunotherapy using redirected allogeneic cells” (YEDA RESEARCH AND DEVELOPMENT CO. LTD., priority 2010, dated 2017)
# How the values were obtained:
# [1] = test system: Renca-erbb2 pulmonary metastases
# Protocol: After determining safe regimens for adoptive transfer, the inventors tested the efficacy of tumor rejection by CR redirected T cells. The inventors used the Renca-erbb2, renal cancer cell line, stably transfected with erbB2 (HER2) which was injected intravenously into Balb/c mice to generate experimental pulmonary metastases. As effectors, the inventors used splenocytes from transgenic mice expressing a HER2 specific chimeric receptor (based on the N29 antibody derived scFv, FIGS. 7A-B) under the CD2 promoter (which is expressed in T and NK cells [8]). The HER2-specific transgenic mice were kept on two backgrounds: C57Bl and Balb/c (named C57Bl-N29 and Balb-N29 respectively). Wild type Balb/c mice were injected with the Renca-erbb2 on day 1, irradiated on day 7, and HER2 specific T-bodies were injected on day 8 (and also on day 10 and 12 in some cases).
# The inventors therefore compared the efficacy of allogeneic (C57Bl-N29) to syngeneic (Balb-N29) T-bodies, and to ensure that allogeneic cells mediate a specific antitumor response (and not just an allogeneic response), they also tested the effect of activated wild type C57Bl cells. Previous experiments in the inventors' lab have established that the minimal regimen which provides significant therapeutic benefit (boosting median survival to 90 days) using syngeneic Balb-N29 is irradiation with 200 rad and transfer of 3 doses of 10 million cells each (abbreviated as 200/30 regimen) complemented with low dose IL-2 (1000 u) twice daily. The purpose was to test if one can provide therapeutic benefit in this model using allogeneic C57Bl-N29 cells. The inventors used the initial regimen as a starting point with one important difference: instead of using naïve transgenic cells, the cells were pre-activated before transfer for 48 hours with concanavalin A. The reason for the change was to simulate a more clinically relevant situation in which lymphocytes will need to be activated in order to facilitate retroviral transduction with the chimeric receptor.
# [2] = FACS analysis of blood and spleen lymphocytes after transfer of allogeneic T-bodies with or without FTY720; type: in vivo, Balb/c mice
# Protocol: Prior to splenocyte staining, RBC were lysed using ACK buffer. Lymphocytes (1×10^6) were incubated with the appropriate antibodies in staining buffer (5% BSA, 0.05% sodium azide in phosphate-buffered saline (PBS)) for 30 minutes on ice. Alternatively, Annexin V staining buffer was used as indicated. CFSE (Carboxyfluorescein succinimidyl ester) labeling was performed according to the manufacturer's instructions (Molecular Probes. Eugene, Oreg.). Cells were analyzed by flow cytometry (LSRII, Becton Dickinson. Mountain View. Calif.) and FacsDiva software (Becton Dickinson).
# This enhanced persistence of allogeneic T-bodies can explain the increased survival of tumor bearing mice treated with allogeneic T-bodies and FTY720.
# Renca-Her2/neu tumor = assay: Survival of Renca-Her2/neu tumor bearing mice after irradiation and T-body transfer (Example 10); type: in vivo, Balb/c mice
# Protocol: Adoptive transfer experiments. Mice were injected with […] Renca-Her2/neu cells iv on day 1. All mice (including the control group) were irradiated on day 7 with 200 or 400 rads (137Cs source). Prior to transfer, all T cells were activated with Con-A 1 μg/ml for 48 hours, and then cultured for 3-5 more days with 350 u/ml IL-2. Either 30×10^6 or 108 T cells were transferred in a split dose on days 8 and 10. In some experiments, FTY720 was injected ip (0.3 mg/kg) on days 8-18. Donor cells were either from wildtype mice (Balb/c or C57BL/6) or from N29 CAR transgenic mice (Balb/c or C57BL/6 backgrounds). In some cases, T-bodies from wild type mice (Balb/c or C57Bl) were transduced with the CAR.
# To investigate the potential of allogeneic adoptive cell therapy, the BALB/c derived mouse renal cell carcinoma (Renca) cell line expressing the human Her2/neu was used. Following intravenous inoculation of the tumor, experimental metastases mainly developed in the lungs, yet, as was reported in similar systems (ref. 62, 63) extra-pulmonary metastases also developed. […] Adoptive transfer of T cells redirected with a Her2/neu-specific chimeric antigen receptor (‘T-bodies’) was performed on days 8 and 10 (FIG. 21). The CAR is composed of a scFv fragment derived from the Her2/Neu-specific N29 antibody fused to a CD28 co-activation moiety and FcRγ signaling sequences (ref. 8). […] T-bodies were obtained from transgenic (Tg) mice of BALB/c (Balb-N29) or C57BL/6 (Black-N29) background, or by the transduction of wild type T cells with a retrovector harboring the Her2/neu-specific CAR. Transduced T cells were activated as part of their transduction, while naïve transgenic (Tg) T cells were also activated to facilitate comparison with transduced T cells.
# S1P2 = S1P2 (Homo sapiens, UniProt O95136); settings: at concentrations up to 10 μM; cited from earlier work
# S1P4 = molecular target: T1, S1P4 (Homo sapiens, UniProt O95977); settings: at concentrations up to 10 μM; cited from earlier work
# T1 sequence (O95977 1-384): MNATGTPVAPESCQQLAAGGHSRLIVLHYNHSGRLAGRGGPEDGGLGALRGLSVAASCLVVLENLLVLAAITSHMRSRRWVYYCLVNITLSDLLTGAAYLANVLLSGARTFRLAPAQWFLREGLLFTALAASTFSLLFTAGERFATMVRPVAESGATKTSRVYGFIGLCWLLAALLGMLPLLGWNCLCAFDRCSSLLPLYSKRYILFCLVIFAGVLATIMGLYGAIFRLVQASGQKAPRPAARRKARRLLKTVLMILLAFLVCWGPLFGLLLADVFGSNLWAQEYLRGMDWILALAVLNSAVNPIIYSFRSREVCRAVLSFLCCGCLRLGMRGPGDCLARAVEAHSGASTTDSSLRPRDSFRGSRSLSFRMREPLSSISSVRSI
# S1P3 [3] = molecular target: T2, S1P3 (Homo sapiens, UniProt Q99500); settings: at concentrations up to 10 μM; cited from earlier work
# S1P5 receptors = S1P5 receptors (Homo sapiens, UniProt Q9H228); settings: at concentrations up to 10 μM; cited from earlier work
# S1P3 [4] = molecular target: T2, S1P3; settings: read-out: ED50 (the source's name); cited from earlier work
# S1P1 = S1P1 (Homo sapiens, UniProt P21453); settings: high affinity for S1P1; cited from earlier work
# [5] = in vivo; cited from earlier work
# [6] = 400 rads and 10^8 allo-T-bodies with FTY720
# T2 sequence (Q99500 whole entry, species assumed): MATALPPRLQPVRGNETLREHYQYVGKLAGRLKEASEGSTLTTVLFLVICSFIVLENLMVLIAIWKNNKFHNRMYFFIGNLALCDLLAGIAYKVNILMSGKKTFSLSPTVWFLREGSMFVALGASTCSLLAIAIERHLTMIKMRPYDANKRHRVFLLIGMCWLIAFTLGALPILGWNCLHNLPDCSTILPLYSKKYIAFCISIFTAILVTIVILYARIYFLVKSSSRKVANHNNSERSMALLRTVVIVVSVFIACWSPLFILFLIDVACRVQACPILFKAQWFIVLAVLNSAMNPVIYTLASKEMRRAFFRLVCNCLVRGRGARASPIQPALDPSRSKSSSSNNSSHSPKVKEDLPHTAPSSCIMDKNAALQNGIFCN
# S1P1, sequence (P21453 whole entry): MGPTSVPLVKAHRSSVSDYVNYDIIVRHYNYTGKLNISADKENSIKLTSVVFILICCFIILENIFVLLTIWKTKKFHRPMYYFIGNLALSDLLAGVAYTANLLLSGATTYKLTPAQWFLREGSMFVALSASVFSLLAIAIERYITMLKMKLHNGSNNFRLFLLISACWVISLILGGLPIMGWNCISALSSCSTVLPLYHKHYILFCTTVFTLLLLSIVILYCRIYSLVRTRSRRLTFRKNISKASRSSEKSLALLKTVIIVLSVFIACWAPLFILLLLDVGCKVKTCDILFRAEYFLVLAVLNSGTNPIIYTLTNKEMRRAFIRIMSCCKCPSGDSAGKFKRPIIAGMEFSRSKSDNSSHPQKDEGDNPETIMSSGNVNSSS
# S1P2, sequence (O95136 whole entry, species assumed): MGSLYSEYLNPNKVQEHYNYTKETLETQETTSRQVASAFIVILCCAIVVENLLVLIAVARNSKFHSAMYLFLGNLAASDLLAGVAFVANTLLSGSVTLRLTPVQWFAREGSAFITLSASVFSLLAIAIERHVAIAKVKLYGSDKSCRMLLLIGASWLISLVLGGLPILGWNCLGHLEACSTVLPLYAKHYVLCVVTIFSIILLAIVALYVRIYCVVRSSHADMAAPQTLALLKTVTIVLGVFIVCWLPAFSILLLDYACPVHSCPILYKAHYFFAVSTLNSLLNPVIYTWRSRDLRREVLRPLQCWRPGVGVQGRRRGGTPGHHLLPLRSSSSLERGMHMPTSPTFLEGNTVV
# S1P5 receptors, sequence (Q9H228 whole entry): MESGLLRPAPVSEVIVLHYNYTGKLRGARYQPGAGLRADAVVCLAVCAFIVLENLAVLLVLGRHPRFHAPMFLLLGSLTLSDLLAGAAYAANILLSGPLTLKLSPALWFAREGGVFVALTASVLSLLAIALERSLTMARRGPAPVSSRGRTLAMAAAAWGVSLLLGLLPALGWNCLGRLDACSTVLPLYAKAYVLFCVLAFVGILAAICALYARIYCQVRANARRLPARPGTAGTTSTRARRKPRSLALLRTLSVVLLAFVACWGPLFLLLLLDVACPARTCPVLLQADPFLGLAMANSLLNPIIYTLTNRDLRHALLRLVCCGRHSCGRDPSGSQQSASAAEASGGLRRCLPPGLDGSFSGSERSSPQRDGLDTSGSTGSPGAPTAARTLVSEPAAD
smiles,measurement,setting,value
"CCCCCCCCc1ccc(CCC(N)(CO)CO)cc1.Cl [FTY720, 2-amino-2-[2-(4-octylphenyl)ethyl]propane-1,3-diol]",long term survivors,"[1]; 200/100 regimen, C57Bl-N29 with FTY720",80%
same,surviving after day 250,"[1]; 400/30 regimen, C57Bl-N29 with FTY720",≥ 50%
same,median survival,"[1]; 400/30 regimen, C57Bl-N29 with FTY720 0.3 mg/kg ip daily days 8-18",not reached
same,GVHD mortality (mice died),"[1]; 400/30 regimen, activated wild type C57Bl cells with FTY720 0.3 mg/kg ip daily days 8-18",2/6
same,tumor bearing mice survived long term,[1]; temporary FTY720 treatment added to allogeneic cells (FIG. 18),50-80%
same,lymphocyte egression to the blood,"[2]; 4 days after transfer of allogeneic T-bodies, CD3 staining of blood",inhibited lymphocyte egression to the blood
same,allo-T-bodies in the spleen,"[2]; day 7 after transfer, anti-H2Kb staining, with vs without FTY720",higher numbers of allo-T-bodies detected in the spleen on day 7
same,effect of FTY720 alone on survival of tumor bearing mice,"Renca-Her2/neu tumor; 0.3 mg/kg i.p for the first 10 days after irradiation, no T-bodies",not to affect the survival of tumor bearing mice
same,long term survival (>350 days),Renca-Her2/neu tumor; [6],most of the remaining mice survived long term
same,mice died of GvHD,Renca-Her2/neu tumor; [6],16%
same,mice surviving long term (>350 days),Renca-Her2/neu tumor; 400 rads and 30x10^6 allogeneic T-bodies with FTY720 0.3 mg/kg ip 10 days,58%
same,median survival,Renca-Her2/neu tumor; 400 rads and 30x10^6 syngeneic T-bodies with FTY720 0.3 mg/kg ip 10 days,90 days
"FC(F)(F)c1cccc(-c2noc(-c3cc(-c4ccccc4)c(C(F)(F)F)s3)n2)c1 [SEW2871, 5-[4-Phenyl-5-(trifluoromethyl)thiophen-2-yl]-3-[3-(trifluoromethyl)phenyl]1,2,4-oxadiazole]",receptor activation,S1P2,does not activate
same,receptor activation,S1P4,does not activate
same,receptor activation,S1P3 [3],does not activate
same,receptor activation,S1P5 receptors,does not activate
"NC(CO)(CCc1ccc(Sc2cccc(Oc3ccccc3)c2)cc1Cl)COP(=O)(O)O (stereo not shown) [KRP-203 phosphate, 2-ammonio-4-(2-chloro-4-(3-phenoxyphenylthio)phenyl)-2-(hydroxymethyl)butyl hydrogen phosphate]",EC50,S1P3 [4],> 1000 nM
same,ED50,S1P1,in the nM range
same,reduction of incidence of bradycardia compared to FTY720,[5],10 fold
